# Results reported in patent US20200316083A1, “ANTIBACTERIAL COMPOSITIONS” (WOCKHARDT LIMITED, priority 2016, published 2020).
# Columns and labels:
# Assay type in all cases: cell-based
# [1] = system: E. coli 7MP producing Class A and Class C beta-lactamase enzymes; test: Time kill study against E. coli 7MP; details: for Effect on bacterial count (in words): alone or in combination
# Procedure: (§1) In general, the antibacterial activity of compositions according to invention was studied by performing time kill studies. In a typical time kill study, the freshly grown cultures were diluted to the required cell density (initial starting inoculum) in cation adjusted Muller Hinton broth medium (BD, USA). The antibacterial agents (either alone or in combination) at the required concentrations were added into the culture-containing medium. The samples were incubated under shaking condition (120 rpm) at 37° C. Enumeration of viable bacterial count was done every 2 hour by diluting in normal saline and plating on to the Tryptic Soya Agar plates (BD, USA). The plates were incubated for 24 hours to arrive at a viable bacterial count. The results are expressed in terms of log10 CFU/ml. In general, the decrease of 1 log10 CFU/ml corresponds to 90% killing of bacteria. Similarly, 2 log10 CFU/ml reductions indicates to 99% killing of bacteria and 3 log10 CFU/ml reductions is equal to 99.9% killing of bacteria.
# [2] = system: K. pneumoniae B-88 producing metallo beta-lactamase enzymes; test: Time kill study against K. pneumoniae B-88
# Procedure: as §1
# [3] = system: A. baumanni 13301 producing Carbapenem hydrolysing beta-lactamase enzymes; test: Time kill study against A. baumanni 13301
# Procedure: as §1
# [4] = summary of Table 5, throughout the duration of the study
compound,measurement,setting,value
"O=C(O)[C@H]1/C(=C/CO)O[C@@H]2CC(=O)N21 [Clavulanic acid, reference compound]",Change in Log10 CFU/ml over 0 hour count after 8 hours,"[1]; Table 5, 4 mcg/ml alone",2.28 Log10 CFU/ml
same,Bacterial count (Log10 CFU/ml) 2 hours,"[1]; Table 5, 4 mcg/ml alone",7.90 Log10 CFU/ml
same,Bacterial count (Log10 CFU/ml) 4 hours,"[1]; Table 5, 4 mcg/ml alone",9.23 Log10 CFU/ml
same,Bacterial count (Log10 CFU/ml) 6 hours,"[1]; Table 5, 4 mcg/ml alone",9.30 Log10 CFU/ml
same,Bacterial count (Log10 CFU/ml) 8 hours,"[1]; Table 5, 4 mcg/ml alone",9.36 Log10 CFU/ml
same,Effect on bacterial count (in words),[1]; [4],did not reduce the bacterial count
O=C(NOC[C@@H]1CCCN1)[C@@H]1CC[C@@H]2CN1C(=O)N2OS(=O)(=O)O [Compound (D)],Change in Log10 CFU/ml over 0 hour count after 24 hours,"[1]; Table 2, 2 mcg/ml alone",0.22 Log10 CFU/ml
same,Bacterial count (Log10 CFU/ml) 2 hours,"[1]; Table 2, 2 mcg/ml alone",7.65 Log10 CFU/ml
same,Bacterial count (Log10 CFU/ml) 4 hours,"[1]; Table 2, 2 mcg/ml alone",7.30 Log10 CFU/ml
same,Bacterial count (Log10 CFU/ml) 6 hours,"[1]; Table 2, 2 mcg/ml alone",7.78 Log10 CFU/ml
same,Bacterial count (Log10 CFU/ml) 24 hours,"[1]; Table 2, 24 hours, 2 mcg/ml alone",7.30 Log10 CFU/ml
same,Effect on bacterial count (in words),[1]; summary of Table 2,could not reduce the bacterial count
same,Bacterial count (Log10 CFU/ml) 0 hours,[2]; 2 mcg/ml alone,7.28 Log10 CFU/ml
same,Change in Log10 CFU/ml over 0 hour count after 24 hours,[2]; 2 mcg/ml alone,1.26 Log10 CFU/ml
same,Bacterial count (Log10 CFU/ml) 2 hours,[2]; 2 mcg/ml alone,7.60 Log10 CFU/ml
same,Bacterial count (Log10 CFU/ml) 4 hours,[2]; 2 mcg/ml alone,8.26 Log10 CFU/ml
same,Bacterial count (Log10 CFU/ml) 6 hours,[2]; 2 mcg/ml alone,8.18 Log10 CFU/ml
same,Bacterial count (Log10 CFU/ml) 24 hours,[2]; 2 mcg/ml alone,8.54 Log10 CFU/ml
same,Effect on bacterial count (in words),"[2]; summary of Table 1, alone or in combination",could not reduce the bacterial count
same,Bacterial count (Log10 CFU/ml) 0 hours,"[3]; 0 hours, 4 mcg/ml alone",6.88 Log10 CFU/ml
same,Change in Log10 CFU/ml over 0 hour count after 24 hours,[3]; 4 mcg/ml alone,2.07 Log10 CFU/ml
same,Bacterial count (Log10 CFU/ml) 2 hours,"[3]; 2 hours, 4 mcg/ml alone",7.98 Log10 CFU/ml
same,Bacterial count (Log10 CFU/ml) 4 hours,"[3]; 4 hours, 4 mcg/ml alone",8.60 Log10 CFU/ml
same,Bacterial count (Log10 CFU/ml) 6 hours,"[3]; 6 hours, 4 mcg/ml alone",9.00 Log10 CFU/ml
same,Bacterial count (Log10 CFU/ml) 8 hours,"[3]; 8 hours, 4 mcg/ml alone",9.04 Log10 CFU/ml
same,Bacterial count (Log10 CFU/ml) 24 hours,"[3]; 24 hours, 4 mcg/ml alone",8.95 Log10 CFU/ml
same,Effect on bacterial count (in words),"[3]; summary of Table 3, alone or in combination",could not reduce the bacterial count
"C[C@]1(Cn2ccnn2)[C@H](C(=O)O)N2C(=O)C[C@H]2S1(=O)=O [Tazobactam, reference compound]",Change in Log10 CFU/ml over 0 hour count after 8 hours,"[1]; Table 5, 4 mcg/ml alone",2.28 Log10 CFU/ml
same,Bacterial count (Log10 CFU/ml) 2 hours,"[1]; Table 5, 4 mcg/ml alone",7.90 Log10 CFU/ml
same,Bacterial count (Log10 CFU/ml) 4 hours,"[1]; Table 5, 4 mcg/ml alone",9.23 Log10 CFU/ml
same,Bacterial count (Log10 CFU/ml) 6 hours,"[1]; Table 5, 4 mcg/ml alone",9.30 Log10 CFU/ml
same,Bacterial count (Log10 CFU/ml) 8 hours,"[1]; Table 5, 4 mcg/ml alone",9.36 Log10 CFU/ml
same,Effect on bacterial count (in words),[1]; [4],did not reduce the bacterial count
"C[C@@H](O)[C@H]1C(=O)N2C(C(=O)O)=C(SCCN=CN)C[C@H]12 [Imipenem, reference compound]",Bacterial count (Log10 CFU/ml) 0 hours,[2]; 8 mcg/ml alone,7.28 Log10 CFU/ml
same,Change in Log10 CFU/ml over 0 hour count after 24 hours,[2]; 8 mcg/ml alone,2.02 Log10 CFU/ml
same,Bacterial count (Log10 CFU/ml) 2 hours,[2]; 8 mcg/ml alone,8.04 Log10 CFU/ml
same,Bacterial count (Log10 CFU/ml) 4 hours,[2]; 8 mcg/ml alone,8.65 Log10 CFU/ml
same,Bacterial count (Log10 CFU/ml) 6 hours,[2]; 8 mcg/ml alone,9.20 Log10 CFU/ml
same,Bacterial count (Log10 CFU/ml) 24 hours,[2]; 8 mcg/ml alone,9.30 Log10 CFU/ml
